Laboratory results taken from publication PMC5393024, “Discovery and characterization of natural tropolones as inhibitors of the antibacterial target CapF from Staphylococcus aureus” (Scientific Reports, 2015).

Tests used:
[1] = system: CapF reconstituted with Zn^2+; assay: FluoZin-3 binding competition assay; set-up: species or system Staphylococcus aureus
Method: (§1) Figure 3 Binding of 3-isopropenyl-tropolone to CapF requires Zn^2+. CapF (150 μM) reconstituted with Zn^2+ was titrated with 1.65 mM inhibitor in the absence (a) or the presence (b) of 1 mM EDTA. The upper panels correspond to the titration data, and the lower panels to the integrated binding isotherms. (c) Binding competition assay. CapF (1.0 μM) reconstituted with Zn^2+ in the presence of the Zn^2+-sensitive dye FluoZin-3 (1.0 μM) was titrated with 3-isopropenyl-tropolone (λEX = 490 nm; λEM = 520 nm).
Second, the fluorescence of the Zn^2+-specific indicator FluoZin-3[19][20] was examined in the presence of CapF. The signal of FluoZin-3 increases dramatically in the presence of Zn^2+ ions when the metal is accessible to the dye. […] In contrast, the fluorescence of FluoZin-3 with apo-CapF, or with holo-CapF in the presence of 3-isopropenyl-tropolone, was negligible.
Fluorescence measurements were carried out using the Zn^2+-sensitive dye FluoZin-3 (Life Technologies) in a buffer composed of 10 mM HEPES, 150 mM NaCl (pH 7.4) supplemented with 5% (v/v) DMSO at 25 °C. The fluorescence intensities were measured in a plate reader (PHERAstar, BMG Labtech, Durham, NC) with excitation and emission wavelengths set to 490 nm and 520 nm, respectively.
Figure S3. Zn2+ governs the binding of inhibitor to CapF. […]
from ZnCl2) with 1.65 mM 3-isopropenyl-tropolone. (b) Fluorescence of the Zn2+-sensitive dye […]

[2] = system: apo-CapF (Zn^2+-depleted); assay: ITC binding to Zn2+-depleted CapF (1 mM EDTA); set-up: species or system Staphylococcus aureus; conditions: 150 μM CapF, 1.65 mM inhibitor
Source text: Because tropolone and its analogs have been described as metal chelators in proteins, we anticipated that binding of the inhibitor to CapF is governed by the Zn^2+ ion present in the cupin domain[12]. To confirm this hypothesis, we performed two different types of experiments. First, we determined the binding properties of 3-isopropenyl-tropolone to apo-CapF (i.e. Zn^2+-depleted CapF) and to holo-CapF (reconstituted with Zn^2+) by isothermal titration calorimetry (ITC). The stoichiometry is consistent with a 1:1 binding model.
as §1
Binding constants and thermodynamic parameters of the interaction between CapF and fragment compounds were determined with an iTC200 instrument (GE Healthcare) at 25 °C. Samples were equilibrated in a buffer composed of 10 mM HEPES (pH 7.4) and 150 mM NaCl supplemented with 5% (v/v) DMSO. CapF at 150–270 μM was titrated with compounds at 0.5–1.65 mM. […]

C=C(C)c1ccccc(=O)c1O [3-isopropenyl-tropolone]
inflexion point of FluoZin-3 fluorescence signal vs concentration of compound ([1]; CapF 1.0 μM, FluoZin-3 1.0 μM, 25 °C): 51 µM
fluorescence of FluoZin-3 with holo-CapF in the presence of compound ([1]; CapF 1 µM, compound 1.0 mM): negligible
binding to apo-CapF by ITC [2]: does not bind
